According to patent US4567178A, “Substituted 5,11-dihydro-6H-dibenz[b,e]azepin-6-ones and pharmaceutical compositions containing same” (Dr. Karl Thomae GmbH, priority 1984, dated 1986):

Assays:
[1] = molecular target: T1, muscarinic receptors (smooth muscle from fundus of stomach) (Rattus norvegicus, UniProt P10980); assay: Muscarinic receptor binding (inhibition of specific 3H-N-methylscopolamine binding), smooth muscle from fundus of stomach; design: species or system rat (male Sprague-Dawley)
T1 construct: Smooth muscle of the fundic section of the stomach was separated from the gastric mucosa; from tissue; host or cells: fundic smooth muscle homogenate of the stomach of male Sprague-Dawley rats
T1 sequence (P10980 1-466): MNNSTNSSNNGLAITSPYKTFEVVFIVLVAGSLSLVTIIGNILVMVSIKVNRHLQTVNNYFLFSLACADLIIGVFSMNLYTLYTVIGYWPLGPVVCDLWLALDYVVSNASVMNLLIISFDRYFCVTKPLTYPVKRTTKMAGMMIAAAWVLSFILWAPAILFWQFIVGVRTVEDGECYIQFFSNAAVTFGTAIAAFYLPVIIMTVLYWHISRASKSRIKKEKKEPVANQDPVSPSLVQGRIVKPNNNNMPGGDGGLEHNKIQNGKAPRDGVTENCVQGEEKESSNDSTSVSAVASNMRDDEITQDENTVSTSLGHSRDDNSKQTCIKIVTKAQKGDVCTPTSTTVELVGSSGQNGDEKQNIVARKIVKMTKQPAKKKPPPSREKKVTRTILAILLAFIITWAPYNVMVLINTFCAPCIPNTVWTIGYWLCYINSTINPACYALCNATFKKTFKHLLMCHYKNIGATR
Protocol: (§1) Determination of the IC50 value
(§2) The organ donors were male Sprague-Dawley rats weighing from 180 to 220 gm. After the removal of the stomach and cerebral cortex, all the other steps were carried out in ice-cold HepesHCl buffer (pH 7.4:100 m molar NaCl, 10 m molr MgCl2). Smooth muscle of the fundic section of the stomach was separated from the gastric mucosa and subjected to preliminary homogenization. All the organs were then homogenized in a potter apparatus.
(§3) For the binding test, the homogenized organ preparations were diluted as follows:
Smooth muscle from the funding of the stomach: 1:100.
(§4) The homogenized organ preparations were incubated in an Eppendorf centrifugal tube at 30° C. with a specific concentration of the radioligand and a concentration series of the non-radioactive test substances. The period of incubation was 45 minutes. 0.3N molar ^3 H-N-methylscopolamine (^3 H-NMS) was used as the radioligand. After the incubation had been stopped by centrifuging at 14,000 g, the radioactivity in the pellet was determined. It represents the sum of specific and non-specific binding of ^3 H-NMS. The proportion of non-specific binding was defined as the radioactivity which was bound in the presence of 1μ molar quinuclidinyl benzylate. Four measurements were taken in each case. The IC50 values of the non-labelled test substances were determined graphically. They represent the concentration of test substance at which the specific binding of ^3 H-NMS to the muscarinic receptors in the various organs was inhibited by 50%.

[2] = Mydriasis (effect on pupil size); conditions: rat, in vivo, iv, pupil size observed for ten minutes
Protocol: The effect of the test substances on the pupil size in rats was investigated as follows:
The substances were administered intravenously to groups of ten animals in at least three uniformly graduated dosages. The pupil size was then observed for ten minutes to see if there were any changes (the occurrence of mydriasis or miosis), and the test was carried out blind, i.e., the investigator was not aware of the preliminary treatment received by the animals. The percentage of test animals in which mydriasis occurred was determined. The ED50 values were again determined according to LITCHFIELD and WILCOXON (see above).

[3] = molecular target: muscarinic receptors (cerebral cortex); assay: Muscarinic receptor binding (inhibition of specific 3H-N-methylscopolamine binding), cerebral cortex; design: species or system rat (male Sprague-Dawley); conditions: rat cerebral cortex homogenate 1:3000, 3H-NMS, 30° C., 45 minutes; read-out: Receptor Binding Tests IC50, Cortex
Protocol: as §1, §2, §3
as §4, with “They represent the concentration of test substance at which the specific binding of ^3 H-NMS to the muscarinic receptors in the various organs was inhibited by 50%.” left out

[4] = tested on: oxotremorine-induced secretion of saliva; assay: Oxotremorine test: inhibition of oxotremorine-induced salivation; assay type: in vivo, rat (Crl:COBS-CD(SD) BR, female albino); conditions: Rattus norvegicus, iv, read-out: Oxotremorine Tests: Inhibition of Salivation ED50
Protocol: Oxotremorine, a specific agonist at muscarinic receptors, produces lesions of the gastric mucosa in rats and increases the secretion of saliva. This test model was chosen to be able to determine any selective activity of an antimuscarinic substance on the stomach.
Ten female albino rats (of the Crl:COBS-CD(SD) BR strain) with a body weight of from 120 to 150 gm were used for each treatment group. These rats were given free access to drinking water but were deprived of food for 24 hours before the start of the test.
To determine, in preliminary tests, the muscarinic effect of oxotremorine on each of the symptoms investigated, a dosage-activity curve was plotted with at least three doses for each symptom.
When testing antimuscarinic substances, the oxotremorine dosage used was the dosage which triggered the symptom to be influenced in 90 to 100% of the animals in the preliminary tests.
Secretion of saliva: 0.083 mg/kg i.v.
Each antimuscarinic substance was administered in uniformly graduated dosages by intravenous route 15 minutes before the administration of oxotremorine. Control groups were given the solvent and suspension agent in corresponding amounts instead of the test substance.
The results were expressed as the percentage inhibition of the oxotremorine effect (percentage of the animals without the symptom in question). The ED50 values were determined using the method of LITCHFIELD and WILCOXON (J. Pharmacol. Exp. Ther. 96, 99, 1949).

| SMILES | IC50 [1] | ED50 at 10 min [2] | IC50 [3] | ED50 [4] |
| --- | --- | --- | --- | --- |
| CN1CCC(CC(=O)C2c3ccccc3NC(=O)c3ccccc32)CC1 (centres unmarked) [B, 5,11-Dihydro-11-[(1-methyl-4-piperidinyl)-acetyl]-6H-dibenz[b,e]azepin-6-one] | 150 nM | 0.179 mg/kg | 25 nM | 0.186 mg/kg |
| CN1CCC(NC(=O)C2c3ccccc3NC(=O)c3ccccc32)CC1 (centres unmarked) [A, 5,11-Dihydro-11-[[(1-methyl-4-piperidinyl)-amino]-carbonyl]-6H-dibenz[b,e]azepin-6-one] | 700 nM | 0.075 mg/kg | 40 nM | 0.19 mg/kg |
| CN1CCN(CC(=O)C2c3ccccc3NC(=O)c3ccccc32)CC1 (centres unmarked) [C, 5,11-Dihydro-[(4-methyl-1-piperazinyl)-acetyl]-6H-dibenz[b,e]azepin-6-one] | 400 nM | 0.161 mg/kg | – | 0.335 mg/kg |
